According to patent EP4772530A1, “PEPTIDE TARGETING SOMATOSTATIN RECEPTOR, DRUG CONJUGATE AND USE THEREOF” (Mainline Biosciences (Shanghai) Co., Ltd., priority 2023, dated 2025):
pEC50, pIC50: −log10 of the molar value. Read-outs that look alike come from different tables or passages of the source. *1 amine or outer side, *2 acyl side, *3 side chain or, on linkers, in order; H or OH if unused. Where a SMILES comes first, the peptide text is derived from it. Bridges are numbered along the chain shown (N, C = ends). Roman numbers before positions name the chains, in order. [ ]: non-standard residue; d: D form. The star is where a group is joined. X4 = CC(=O)N[C@@H](CSC1CC(=O)N(CCCCCC(=O)[*:2])C1=O)C(=O)NCCOCCOCCOCCOCCOCCOCCC(=O)[*:1]; Exatecan = CC[C@@]1(O)C(=O)OCc2c1cc1n(c2=O)Cc2c-1nc1cc(F)c(C)c3c1c2[C@@H](N*)CC3; X1 = O=C(O)[C@H]1O[C@@H](Oc2ccc(COC(=O)[*:2])cc2N[*:1])[C@H](O)[C@@H](O)[C@@H]1O; Hexanoyl(6-succinimido-3yl) = O=C1CC([*:1])C(=O)N1CCCCCC(=O)[*:2]; Dolaproine = CO[C@@H]([C@@H]1CCCN1)[C@@H](C)C(=O)O; X3 = O=C(CCCCCN1C(=O)CC([*:1])C1=O)NCCC(=O)[*:2]; Dil = CC[C@H](C)[C@H](NC)[C@@H](CC(=O)O)OC; PEG6 = NCCOCCOCCOCCOCCOCCOCCC(=O)O; NHCH2OCH2CO = O=C(COCN[*:1])[*:2]; X2 = C[C@@H](N*)[C@@H](O)c1ccccc1; NMeV = CN[C@H](C(=O)O)C(C)C; AEEA = NCCOCCOCC(=O)O

Assays:
[1] = tested on: NCI-H69; experiment: Cell killing in NCI-H69 by CGT (CellTiter-Glo); type: cell-based; details: NCI-H69, 96 h; for Bottom (Inhibition at Lowest Point) / Top (Inhibition at Highest Point): Inh% relative to DMSO control, 4-parameter fit
Experimental: Approximately 5 µL of the PDC was added to the corresponding wells of the plate, and compared with DMSO (control, without the PDC of the present application), PTX, MMAE, and Dxd wells. The final concentration of DMSO in each well was 0.2%; • (5) The cells were incubated in a 5% CO2 incubator at 37°C for 96 h; • (6) The cell culture plate was equilibrated to room temperature, and 50 µL of CellTiter-Glo® Reagent was added to each well; • (7) The plate was placed on a shaker for 2 min to ensure complete cell lysis; • (8) After mixing, the plate was placed at room temperature to react for 10 min. The fluorescence value (in RLU) was read when the signal became stable. • c) Data analysis • (1) The inhibition (Inh %) relative to the DMSO control was calculated as follows: Inhibition (Inh%)= 100 -(RLU of compound - RLU of DMSO control)/ (RLU of DMSO control - RLU of blank)*100% • (2) The data were analyzed using Graphpad 5.0 software. A 4-parameter equation was fitted to generate a concentration-response curve to obtain the IC50. Table 3: Test Results of Cell Killing in NCI-H69

[2] = molecular target: T1, SSTR2 (Homo sapiens, UniProt P30874); experiment: SSTR2 cAMP test; type: cell-based; details: for activity at 50 µM: Max Dose 50000 nM; for pEC50: SSTR2/CHO cells, Forskolin, cAMP activation rate
T1 construct: expressed in transfected cells; host or cells: CHO cells (SSTR2/CHO)
T1 sequence (P30874 whole entry): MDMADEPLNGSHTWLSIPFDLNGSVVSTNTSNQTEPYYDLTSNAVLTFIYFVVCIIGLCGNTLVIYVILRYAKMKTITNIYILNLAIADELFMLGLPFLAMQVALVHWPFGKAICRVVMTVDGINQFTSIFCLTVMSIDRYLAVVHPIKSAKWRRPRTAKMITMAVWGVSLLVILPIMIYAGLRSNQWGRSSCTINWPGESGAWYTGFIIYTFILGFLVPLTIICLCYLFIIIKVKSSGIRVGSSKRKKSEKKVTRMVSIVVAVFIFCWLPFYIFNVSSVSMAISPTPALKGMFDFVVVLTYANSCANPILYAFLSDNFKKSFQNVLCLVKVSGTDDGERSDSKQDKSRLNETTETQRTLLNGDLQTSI
Experimental: • 1) Compound preparation: The test compound was diluted by 4-fold with DMSO to obtain 10 different concentration points. Approximately 100 nL of the diluted compound was then transferred to a cell reaction plate and centrifuged for later use. • 2) Cell preparation:The cultured SSTR2/CHO cells were collected into a sterile centrifuge tube, and the supernatant was discarded by centrifugation. • 3) The cells were resuspended in assay buffer, counted using a Vi-cell counter, and diluted with assay buffer. • 4) Approximately 100 nL of 100 µM Forskolin was transferred into the cell reaction plate using an Echo and centrifuged. Then, 10 µL of assay buffer containing the cells was added and incubated. • 5) Approximately 10 µL of cAMP detection reagent solution was added to the corresponding wells of the cell reaction plate, and incubated at room temperature in the dark. • 6) The plate was read using a microplate reader. The final value was determined as the ratio of OD at 665 nm to that at 615 nm. • 7) The cAMP value was calculated for each well: Activity (%)=(signal value of sample well - mean signal value of low-signal control wells)/ (mean signal value of high-signal control wells - mean signal value of low-signal control wells). Fitting was performed using the "Nonlinear regression (curve fit)-log(agonist) vs. response -- Variable slope" model in GraphPad Prism 5.0, with the log-transformed compound concentration on the x-axis and cAMP activation rate on the y-axis. The EC50 value of the sample was calculated accordingly. Table 2: SSTR2 cAMP Test Results

Row | SMILES | pIC50 [1] | activity at 50 µM [2] | pEC50 [2] | Bottom (Inhibition at Lowest Point) [1] | Top (Inhibition at Highest Point) [1] | other results
1 | CC[C@@]1(O)C(=O)OCc2c1cc1n(c2=O)Cc2c-1nc1cc(F)c(C)c3c1c2[C@@H](NC(=O)COCNC(=O)CNC(=O)[C@H](Cc1ccccc1)NC(=O)CNC(=O)CNC(=O)CCCCCN1C(=O)CC(SC[C@H](NC(C)=O)C(=O)NCCOCCOCCOCCOCCOCCOCCC(=O)N[C@@H](CCCNC(=N)N)C(=O)N[C@@H](CCCNC(=N)N)C(=O)N[C@@H](CC(C)C)C(=O)N[C@@H](Cc2ccccc2)C(=O)N[C@H]2CSSC[C@@H](C(=O)N[C@H](C(=O)N[C@@H](Cc4c[nH]c5ccccc45)C(=O)N[C@@H](CCCNC(=N)N)C(=O)N[C@@H](CC(=O)O)C(N)=O)[C@@H](C)O)NC(=O)[C@H]([C@@H](C)O)NC(=O)[C@H](CCCCN)NC(=O)[C@@H](Cc4c[nH]c5ccccc45)NC(=O)[C@H](Cc4ccc(O)cc4)NC2=O)C1=O)CC3 (stereo partly drawn) [Example 6, Ac-Cys(MC-Gly-Gly-Phe-Gly-NH-CH2-Dxd)-PEG6-Arg-Arg-Leu-Phe-[Cys-Tyr-D-Trp-Lys-Thr-Cys]-Thr-Trp-Arg-Asp-NH2] (I: Ac-C[PEG6]RRLFCY[dW]KTCTWRD-NH2 / II: GGFG[NHCH2OCH2CO]-Exatecan; linker I:1-II:N via Hexanoyl(6-succinimido-3yl); disulfide I:7-I:12) | 6.56 | 67.8% | 6.83 | – | – | –
2 | CCC(C)C(C(CC(=O)N1CCCC1C(OC)C(C)C(=O)NC(C)C(O)c1ccccc1)OC)N(C)C(=O)C(NC(=O)C(NC)C(C)C)C(C)C (centres unmarked) [MMAE] | – | – | – | 0.31 | 85.99 | pIC50 ([1]; Homo sapiens, read-out: IC50): 9.24
3 | CC[C@@]1(O)C(=O)OCc2c1cc1n(c2=O)Cc2c-1nc1cc(F)c(C)c3c1c2[C@@H](NC(=O)COCNC(=O)CNC(=O)[C@H](Cc1ccccc1)NC(=O)CNC(=O)CNC(=O)CCCCCN1C(=O)CC(SC[C@H](NC(C)=O)C(=O)NCCOCCOCCOCCOCCOCCOCCC(=O)NCCCC[C@H](NC(=O)CCOCCOCCOCCOCCOCCOCCNC(=O)[C@H](CSC2CC(=O)N(CCCCCC(=O)NCC(=O)NCC(=O)N[C@@H](Cc4ccccc4)C(=O)NCC(=O)NCOCC(=O)N[C@H]4CCc5c(C)c(F)cc6nc7c(c4c56)Cn4c-7cc5c(c4=O)COC(=O)[C@]5(O)CC)C2=O)NC(C)=O)C(=O)N[C@@H](CCCCNC(=O)CCOCCOCCOCCOCCOCCOCCNC(=O)[C@H](CSC2CC(=O)N(CCCCCC(=O)NCC(=O)NCC(=O)N[C@@H](Cc4ccccc4)C(=O)NCC(=O)NCOCC(=O)N[C@H]4CCc5c(C)c(F)cc6nc7c(c4c56)Cn4c-7cc5c(c4=O)COC(=O)[C@]5(O)CC)C2=O)NC(C)=O)C(=O)NCCOCCOCCOCCOCCOCCOCCC(=O)N[C@@H](CCCNC(=N)N)C(=O)N[C@@H](CCCNC(=N)N)C(=O)N[C@@H](CC(C)C)C(=O)N[C@@H](Cc2ccccc2)C(=O)N[C@H]2CSSC[C@@H](C(=O)N[C@H](C(=O)N[C@@H](Cc4c[nH]c5ccccc45)C(=O)N[C@@H](CCCNC(=N)N)C(=O)N[C@@H](CC(=O)O)C(N)=O)[C@@H](C)O)NC(=O)[C@H]([C@@H](C)O)NC(=O)[C@H](CCCCN)NC(=O)[C@@H](Cc4c[nH]c5ccccc45)NC(=O)[C@H](Cc4ccc(O)cc4)NC2=O)C1=O)CC3 (stereo partly drawn) [Example 7, Ac-Cys(MC-Gly-Gly-Phe-Gly-NH-CH2-Dxd)-PEG6-Lys(Ac-Cys(MC-Gly-Gly-Phe-Gly-NH-CH2-Dxd)-PEG6)-Lys(Ac-Cys(MC-Gly-Gly-Phe-Gly-NH-CH2-Dxd)-PEG6)-PEG6-Arg-Arg-Leu-Phe-[Cys-Tyr-D-Trp-Lys-Thr-Cys]-Thr-Trp-Arg-Asp-NH2] (I: Ac-C[PEG6]KK[PEG6]RRLFCY[dW]KTCTWRD-NH2 / II: GGFG[NHCH2OCH2CO]-Exatecan / III: GGFG[NHCH2OCH2CO]-Exatecan / IV: GGFG[NHCH2OCH2CO]-Exatecan; linker I:1-III:N via Hexanoyl(6-succinimido-3yl); linker I:3-II:N, I:4-IV:N via X4; disulfide I:10-I:15) | 6.91 | 54.4% | 4.63 | – | – | –
4 | CC[C@@]1(O)C(=O)OCc2c1cc1n(c2=O)Cc2c-1nc1cc(F)c(C)c3c1c2[C@@H](NC(=O)COCNC(=O)CNC(=O)[C@H](Cc1ccccc1)NC(=O)CNC(=O)CNC(=O)CCCCCN1C(=O)CC(SC[C@H](NC(=O)CCOCCOCCOCCOCCOCCOCCN)C(=O)NCCOCCOCCOCCOCCOCCOCCC(=O)N[C@@H](CCCNC(=N)N)C(=O)N[C@@H](CCCNC(=N)N)C(=O)N[C@@H](CC(C)C)C(=O)N[C@@H](Cc2ccccc2)C(=O)N[C@H]2CSSC[C@@H](C(=O)N[C@H](C(=O)N[C@@H](Cc4c[nH]c5ccccc45)C(=O)N[C@@H](CCCNC(=N)N)C(=O)N[C@@H](CC(=O)O)C(N)=O)[C@@H](C)O)NC(=O)[C@H]([C@@H](C)O)NC(=O)[C@H](CCCCN)NC(=O)[C@@H](Cc4c[nH]c5ccccc45)NC(=O)[C@H](Cc4ccc(O)cc4)NC2=O)C1=O)CC3 (stereo partly drawn) [Example 5, PEG6-Cys(MC-Gly-Gly-Phe-Gly-NH-CH2-Dxd)-PEG6-Arg-Arg-Leu-Phe-[Cys-Tyr-D-Trp-Lys-Thr-Cys]-Thr-Trp-Arg-Asp-NH2] (I: H-[PEG6]C[PEG6]RRLFCY[dW]KTCTWRD-NH2 / II: GGFG[NHCH2OCH2CO]-Exatecan; linker I:2-II:N via Hexanoyl(6-succinimido-3yl); disulfide I:8-I:13) | 6.50 | 83.5% | 6.81 | – | – | –
5 | CC[C@@]1(O)C(=O)OCc2c1cc1n(c2=O)Cc2c-1nc1cc(F)c(C)c3c1c2[C@@H](NC(=O)CO)CC3 [Dxd] | – | – | – | = 0.0 | 98.19 | pIC50 ([1]; Homo sapiens): 8.12
6 | CC(=O)O[C@H]1C(=O)[C@@]2(C)[C@H]([C@H](OC(=O)c3ccccc3)[C@]3(O)C[C@H](OC(=O)[C@H](O)[C@@H](NC(=O)c4ccccc4)c4ccccc4)C(C)=C1C3(C)C)[C@]1(OC(C)=O)CO[C@@H]1C[C@@H]2O [PTX] | – | – | – | 0.47 | 78.37 | pIC50 ([1]; read-out: IC50): 8.43
7 | CC[C@H](C)[C@@H]([C@@H](CC(=O)N1CCC[C@H]1[C@H](OC)[C@@H](C)C(=O)N[C@H](C)[C@@H](O)c1ccccc1)OC)N(C)C(=O)[C@@H](NC(=O)[C@H](C(C)C)N(C)C(=O)OCc1ccc(O[C@@H]2O[C@H](C(=O)O)[C@@H](O)[C@H](O)[C@H]2O)c(NC(=O)CCNC(=O)CCCCCN2C(=O)CC(SC[C@H](NC(C)=O)C(=O)NCCOCCOCC(=O)NCCOCCOCC(=O)NCCOCCOCC(=O)N[C@@H](CCCNC(=N)N)C(=O)N[C@@H](CCCNC(=N)N)C(=O)N[C@@H](CC(C)C)C(=O)N[C@@H](Cc3ccccc3)C(=O)N[C@H]3CSSC[C@@H](C(=O)N[C@H](C(=O)N[C@@H](Cc4c[nH]c5ccccc45)C(=O)N[C@@H](CCCNC(=N)N)C(=O)N[C@@H](CC(=O)O)C(N)=O)[C@@H](C)O)NC(=O)[C@H]([C@@H](C)O)NC(=O)[C@H](CCCCN)NC(=O)[C@@H](Cc4c[nH]c5ccccc45)NC(=O)[C@H](Cc4ccc(O)cc4)NC3=O)C2=O)c1)C(C)C (stereo partly drawn) [Example 4, Ac-Cys(MC-betaglucuronide-MMAE)-AEEA-AEEA-AEEA-Arg-Arg-Leu-Phe-[Cys-Tyr-D-Trp-Lys-Thr-Cys]-Thr-Trp-Arg-Asp-NH2] (I: Ac-C[AEEA][AEEA][AEEA]RRLFCY[dW]KTCTWRD-NH2 / II: [X1][NMeV]V[Dil][Dolaproine]-X2; linker I:1-II:N via X3; disulfide I:9-I:14) | – | 95.2% | – | 3.88 | 75.08 | –
8 | CC(C)C[C@H](NC(=O)[C@H](CCCNC(=N)N)NC(=O)[C@@H](N)CCCNC(=N)N)C(=O)N[C@@H](Cc1ccccc1)C(=O)N[C@H]1CSSC[C@@H](C(=O)N[C@H](C(=O)N[C@@H](Cc2c[nH]c3ccccc23)C(=O)N[C@@H](CCCNC(=N)N)C(=O)N[C@@H](CC(=O)O)C(N)=O)[C@@H](C)O)NC(=O)[C@H]([C@@H](C)O)NC(=O)[C@H](CCCCN)NC(=O)[C@@H](Cc2c[nH]c3ccccc23)NC(=O)[C@H](Cc2ccccc2)NC1=O [SEQ ID No. 2, H-Arg-Arg-Leu-Phe-[Cys-Phe-D-Trp-Lys-Thr-Cys]-Thr-Trp-Arg-Asp-NH2] (H-RRLFCF[dW]KTCTWRD-NH2; disulfide 5-10) | – | – | 7.45 | – | – | activity at 150 µM ([2]; Max Dose 150000 nM): 99.1%
